Test results as given in PubChem BioAssay AID2060326 (Molecular Pharmacology Branch, DTP, NCI, 2025).
“And” between values parts separate entries of the source, which are not always exact repeats. Equal entries are not always repeated. Blank lines part the entries; values can stand above or below the molecule they belong to.

Tested on: MDA-MB-468 multi-cell spheroids, viability
Assay: Anticancer human tumor MDA-MB-468 cell line growth inhibition [IpAb];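 also: spheroids exposed to agents for seven days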;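 as to viability, T/C: 100% = DMSO vehicle control viability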
Conditions: for viability, T/C: stronger effect = lower value
Procedure, shortened: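 Combinations with ipatasertib or abemaciclib were tested on tumour spheroids holding HUVEC (25%) and MSC (15%) alongside 60% malignant cells. Top concentration was at or near clinical Cmax (10 microM if undefined), descending in half-log steps.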

[1] = curve of first compound, second compound 0.1 µM
[2] = curve of first compound, second compound 0.316 µM
[3] = curve of first compound, second compound 1 µM
[4] = curve of first compound, second compound 3.16 µM
[5] = curve of first compound, second compound 10 µM
[6] = second compound 0.1 µM, first compound 0.00316 µM
[7] = second compound 0.1 µM, first compound 0.01 µM
[8] = second compound 0.1 µM, first compound 0.0316 µM
[9] = second compound 0.1 µM, first compound 0.1 µM
[10] = second compound 0.316 µM, first compound 0.00316 µM
[11] = second compound 0.316 µM, first compound 0.01 µM
[12] = second compound 0.316 µM, first compound 0.0316 µM
[13] = second compound 0.316 µM, first compound 0.1 µM
[14] = second compound 1 µM, first compound 0.00316 µM
[15] = second compound 1 µM, first compound 0.01 µM
[16] = second compound 1 µM, first compound 0.0316 µM
[17] = second compound 1 µM, first compound 0.1 µM
[18] = second compound 3.16 µM, first compound 0.00316 µM
[19] = second compound 3.16 µM, first compound 0.01 µM
[20] = second compound 3.16 µM, first compound 0.0316 µM
[21] = second compound 3.16 µM, first compound 0.1 µM
[22] = second compound 10 µM, first compound 0.00316 µM
[23] = second compound 10 µM, first compound 0.01 µM
[24] = second compound 10 µM, first compound 0.0316 µM
[25] = second compound 10 µM, first compound 0.1 µM
[26] = second compound 0.1 µM, first compound 0.316 µM
[27] = second compound 0.1 µM, first compound 1 µM
[28] = second compound 0.316 µM, first compound 0.316 µM
[29] = second compound 0.316 µM, first compound 1 µM
[30] = second compound 1 µM, first compound 0.316 µM
[31] = second compound 1 µM, first compound 1 µM
[32] = second compound 3.16 µM, first compound 0.316 µM
[33] = second compound 3.16 µM, first compound 1 µM
[34] = second compound 10 µM, first compound 0.316 µM
[35] = second compound 10 µM, first compound 1 µM

SMILES: Cn1cnc2c(F)c(Nc3ccc(Br)cc3Cl)c(C(=O)NOCCO)cc21 + CCN1CCN(Cc2ccc(Nc3ncc(F)c(-c4cc(F)c5nc(C)n(C(C)C)c5c4)n3)nc2)CC1
IC50 (curve of first compound, second compound 0.01 µM): 1130 nM
IC50 (curve of first compound, second compound 0.0316 µM): 920 nM
IC50 [1]: 798 nM
IC50 [2]: 601 nM
IC50 [3]: 152 nM
viability, T/C (second compound 0.01 µM, first compound 0.00949 µM): 102%
viability, T/C (second compound 0.01 µM, first compound 0.03 µM): 79.5%
viability, T/C (second compound 0.01 µM, first compound 0.0949 µM): 77.7%
viability, T/C (second compound 0.01 µM, first compound 0.3 µM): 73.3%
viability, T/C (second compound 0.01 µM, first compound 0.949 µM): 55.1%
viability, T/C (second compound 0.01 µM, first compound 3 µM): 31.5%
viability, T/C (second compound 0.0316 µM, first compound 0.00949 µM): 83.7%
viability, T/C (second compound 0.0316 µM, first compound 0.03 µM): 76.3%
viability, T/C (second compound 0.0316 µM, first compound 0.0949 µM): 73.6%
viability, T/C (second compound 0.0316 µM, first compound 0.3 µM): 60.8%
viability, T/C (second compound 0.0316 µM, first compound 0.949 µM): 52%
viability, T/C (second compound 0.0316 µM, first compound 3 µM): 29.7%
viability, T/C (second compound 0.1 µM, first compound 0.00949 µM): 95.8%
viability, T/C (second compound 0.1 µM, first compound 0.03 µM): 73.6%
viability, T/C (second compound 0.1 µM, first compound 0.0949 µM): 81.3%
viability, T/C (second compound 0.1 µM, first compound 0.3 µM): 58.8%
viability, T/C (second compound 0.1 µM, first compound 0.949 µM): 52.4%
viability, T/C (second compound 0.1 µM, first compound 3 µM): 28.4%
viability, T/C (second compound 0.316 µM, first compound 0.00949 µM): 108%
viability, T/C (second compound 0.316 µM, first compound 0.03 µM): 89.8%
viability, T/C (second compound 0.316 µM, first compound 0.0949 µM): 75.5%
viability, T/C (second compound 0.316 µM, first compound 0.3 µM): 63.3%
viability, T/C (second compound 0.316 µM, first compound 0.949 µM): 51.1%
viability, T/C (second compound 0.316 µM, first compound 3 µM): 16.8%
viability, T/C (second compound 1 µM, first compound 0.00949 µM): 92.7%
viability, T/C (second compound 1 µM, first compound 0.03 µM): 69%
viability, T/C (second compound 1 µM, first compound 0.0949 µM): 58.9%
viability, T/C (second compound 1 µM, first compound 0.3 µM): 43.5%
viability, T/C (second compound 1 µM, first compound 0.949 µM): 18.8%
viability, T/C (second compound 1 µM, first compound 3 µM): 3.98%

SMILES: CC(C)n1nc(-c2ccc3oc(N)nc3c2)c2c(N)ncnc21 + CC(C)NCC(C(=O)N1CCN(c2ncnc3c2C(C)CC3O)CC1)c1ccc(Cl)cc1
IC50 [1]: 5.15 nM
IC50 [2]: 2.36 nM
IC50 [3]: < 0.316 nM
IC50 [4]: < 0.316 nM
IC50 [5]: < 0.316 nM
viability, T/C (second compound 0.1 µM, first compound 0.000316 µM): 76.6%
viability, T/C (second compound 0.1 µM, first compound 0.001 µM): 72.1%
viability, T/C [6]: 58.3%
viability, T/C [7]: 38.7%
viability, T/C [8]: 15.8%
viability, T/C [9]: 7.82%
viability, T/C (second compound 0.316 µM, first compound 0.000316 µM): 59%
viability, T/C (second compound 0.316 µM, first compound 0.001 µM): 54.5%
viability, T/C [10]: 48.6%
viability, T/C [11]: 23.4%
viability, T/C [12]: 9.26%
viability, T/C [13]: 5.3%
viability, T/C (second compound 1 µM, first compound 0.000316 µM): 47.6%
viability, T/C (second compound 1 µM, first compound 0.001 µM): 41%
viability, T/C [14]: 31.1%
viability, T/C [15]: 11.3%
viability, T/C [16]: 5.17%
viability, T/C [17]: 3.13%
viability, T/C (second compound 3.16 µM, first compound 0.000316 µM): 31.4%
viability, T/C (second compound 3.16 µM, first compound 0.001 µM): 25.4%
viability, T/C [18]: 16.8%
viability, T/C [19]: 5.94%
viability, T/C [20]: 2.41%
viability, T/C [21]: 1.21%
viability, T/C (second compound 10 µM, first compound 0.000316 µM): 15.7%
viability, T/C (second compound 10 µM, first compound 0.001 µM): 14.3%
viability, T/C [22]: 7.69%
viability, T/C [23]: 3.03%
viability, T/C [24]: 0.6%
viability, T/C [25]: 0.38%

SMILES: COc1c(OCCCN2CCOCC2)ccc2c3n(c(=NC(=O)c4cnc(N)nc4)nc12)CCN3 + CC(C)NCC(C(=O)N1CCN(c2ncnc3c2C(C)CC3O)CC1)c1ccc(Cl)cc1
IC50 [1]: 83.7 nM
IC50 [2]: 33.8 nM
IC50 [3]: < 3.16 nM
IC50 [4]: < 3.16 nM
IC50 [5]: < 3.16 nM
viability, T/C [6]: 98.4%
viability, T/C [7]: 78.2%
viability, T/C [8]: 70.2%
viability, T/C [9]: 49.7%
viability, T/C [26]: 20.3%
viability, T/C [27]: 3.61%
viability, T/C [10]: 68.5%
viability, T/C [11]: 56.1%
viability, T/C [12]: 54%
viability, T/C [13]: 36.3%
viability, T/C [28]: 18.1%
viability, T/C [29]: 2.31%
viability, T/C [14]: 51.3%
viability, T/C [15]: 40.3%
viability, T/C [16]: 38.9%
viability, T/C [17]: 26.8%
viability, T/C [30]: 11.9%
viability, T/C [31]: 1.77%
viability, T/C [18]: 30.4%
viability, T/C [19]: 26.5%
viability, T/C [20]: 23%
viability, T/C [21]: 19.1%
viability, T/C [32]: 9.55%
viability, T/C [33]: 1.46%
viability, T/C [22]: 16.1%
viability, T/C [23]: 12.8%
viability, T/C [24]: 11%
viability, T/C [25]: 8.37%
viability, T/C [34]: 4.92%
viability, T/C [35]: 0.95%

IC50 (curve of compound): 141 nM and 139 nM
SMILES: COc1c(OCCCN2CCOCC2)ccc2c3n(c(=NC(=O)c4cnc(N)nc4)nc12)CCN3
viability, T/C (compound 0.00316 µM): 89% and 95.1%
viability, T/C (compound 0.01 µM): 95% and 91.5%
viability, T/C (compound 0.0316 µM): 73% and 72.7%
viability, T/C (compound 0.1 µM): 63.9% and 66.5%
viability, T/C (compound 0.316 µM): 25.6% and 23.6%
viability, T/C (compound 1 µM): 4.06% and 3.22%

SMILES: C=CC(=O)N1CCN(c2nc(=O)n(-c3c(C)ccnc3C(C)C)c3nc(-c4c(O)cccc4F)c(F)cc23)C(C)C1 (configuration not stated) + CC(C)NCC(C(=O)N1CCN(c2ncnc3c2C(C)CC3O)CC1)c1ccc(Cl)cc1
IC50 [1]: 7040 nM
IC50 [2]: 4930 nM
IC50 [3]: 4170 nM
IC50 [4]: < 31.6 nM
IC50 [5]: < 31.6 nM
viability, T/C [8]: 115%
viability, T/C [9]: 123%
viability, T/C [26]: 118%
viability, T/C [27]: 105%
viability, T/C (second compound 0.1 µM, first compound 3.16 µM): 78.2%
viability, T/C (second compound 0.1 µM, first compound 10 µM): 37.8%
viability, T/C [12]: 94.4%
viability, T/C [13]: 69.8%
viability, T/C [28]: 68.4%
viability, T/C [29]: 71.6%
viability, T/C (second compound 0.316 µM, first compound 3.16 µM): 67.3%
viability, T/C (second compound 0.316 µM, first compound 10 µM): 27.4%
viability, T/C [16]: 64.5%
viability, T/C [17]: 55.9%
viability, T/C [30]: 62.4%
viability, T/C [31]: 57.6%
viability, T/C (second compound 1 µM, first compound 3.16 µM): 59.8%
viability, T/C (second compound 1 µM, first compound 10 µM): 19.2%
viability, T/C [20]: 42.3%
viability, T/C [21]: 41.2%
viability, T/C [32]: 44.5%
viability, T/C [33]: 39.6%
viability, T/C (second compound 3.16 µM, first compound 3.16 µM): 29.6%
viability, T/C (second compound 3.16 µM, first compound 10 µM): 8.37%
viability, T/C [24]: 19.5%
viability, T/C [25]: 22.1%
viability, T/C [34]: 20.5%
viability, T/C [35]: 19.3%
viability, T/C (second compound 10 µM, first compound 3.16 µM): 13.8%
viability, T/C (second compound 10 µM, first compound 10 µM): 5.04%
